Laboratory results reported in PubChem BioAssay AID248 (DTP/NCI, 2004).
Where “and” joins values, the source holds several entries; their conditions need not be identical. Identical values can stand only once. Toxic doses and inconclusive results are not listed.

Tested on: L1210 leukemia ip in BDF1 mice, survival T/C
Assay: NCI In Vivo Anticancer Drug Screen. Data for tumor model L1210 Leukemia (intraperitoneal) in B6D2F1 (BDF1) mice
Conditions: endpoint: mean survival time, higher = longer survival
Method in brief: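 Antitumor effect is assessed in tumor-bearing animals. Survival in the compound arm is compared with a vehicle-dosed control arm and expressed as their quotient.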

[1] = dose: 100.0 mg/kg/injection, schedule: Q01DX009 (ip), vehicle: saline with Tween-80
[2] = dose: 200.0 mg/kg/injection, schedule: Q01DX009 (ip), vehicle: saline with Tween-80
[3] = dose: 400.0 mg/kg/injection, schedule: Q01DX009 (ip), vehicle: saline with Tween-80
[4] = dose: 100.0 mg/kg/injection, schedule: Q04DX003 (ip), vehicle: Klucel (hydroxypropylcellulose) (HPC)
[5] = dose: 200.0 mg/kg/injection, schedule: Q04DX003 (ip), vehicle: Klucel (hydroxypropylcellulose) (HPC)
[6] = dose: 100.0 mg/kg/injection, schedule: Q04DX003 (ip), vehicle: saline with Tween-80
[7] = dose: 200.0 mg/kg/injection, schedule: Q04DX003 (ip), vehicle: saline with Tween-80
[8] = dose: 400.0 mg/kg/injection, schedule: Q04DX003 (ip), vehicle: saline with Tween-80
[9] = dose: 100.0 mg/kg/injection, schedule: Q01DX001 (ip), vehicle: saline with Tween-80
[10] = dose: 100.0 mg/kg/injection, schedule: Q04DX002 (ip), vehicle: saline with Tween-80
[11] = dose: 200.0 mg/kg/injection, schedule: Q01DX001 (ip), vehicle: saline with Tween-80
[12] = dose: 200.0 mg/kg/injection, schedule: Q04DX002 (ip), vehicle: saline with Tween-80
[13] = dose: 400.0 mg/kg/injection, schedule: Q01DX001 (ip), vehicle: saline with Tween-80
[14] = dose: 400.0 mg/kg/injection, schedule: Q04DX002 (ip), vehicle: saline with Tween-80

## CN(C)c1ccc(/C=C2\C=Cc3ccccc32)cc1F
dose: 100.0 mg/kg/injection, schedule: Q01DX001 (ip), vehicle: carboxymethylcellulose (CMC)
  T/C: 92 % of control
[1]
  T/C: 100 % of control
dose: 200.0 mg/kg/injection, schedule: Q01DX001 (ip), vehicle: carboxymethylcellulose (CMC)
  T/C: 95 % of control
[2]
  T/C: 94 % of control
dose: 400.0 mg/kg/injection, schedule: Q01DX001 (ip), vehicle: carboxymethylcellulose (CMC)
  T/C: 97 % of control
[3]
  T/C: 98 % of control

## Cc1cc(N(CCOS(C)(=O)=O)CCOS(C)(=O)=O)ccc1C=Nc1ccc(-c2csc(-c3ccc(Br)cc3)n2)cc1
dose: 100.0 mg/kg/injection, schedule: Q01DX009 (ip), vehicle: saline
  T/C: 109 % of control
[4]
  T/C: 150 % of control
dose: 150.0 mg/kg/injection, schedule: Q01DX009 (ip), vehicle: saline
  T/C: 101 % of control
[5]
  T/C: 91 % of control

## O=C(c1ccc(Cl)cc1)C(O)c1ccc(Cl)cc1 (configuration not stated)
dose: 50.0 mg/kg/injection, schedule: Q01DX001 (ip), vehicle: saline
  T/C: 96 % of control
dose: 100.0 mg/kg/injection, schedule: Q01DX001 (ip), vehicle: saline
  T/C: 90 % of control
[6]
  T/C: 90 % of control
dose: 200.0 mg/kg/injection, schedule: Q01DX001 (ip), vehicle: saline
  T/C: 96 % of control
[7]
  T/C: 92 % of control
dose: 400.0 mg/kg/injection, schedule: Q01DX001 (ip), vehicle: saline
  T/C: 100 % of control
[8]
  T/C: 86 % of control

## CCOC(=O)c1ccc(N2C(C#N)c3ccccc3OC2c2ccccc2O)cc1 (configuration not stated)
[9]
  T/C: 91 % of control
[1]
  T/C: 93 % of control and 106 % of control
[10]
  T/C: 95 % of control and 92 % of control
[6]
  T/C: 90 % of control
[11]
  T/C: 88 % of control
[2]
  T/C: 94 % of control and 90 % of control
[12]
  T/C: 95 % of control and 97 % of control
[7]
  T/C: 97 % of control
[13]
  T/C: 88 % of control
[3]
  T/C: 94 % of control and 87 % of control
[14]
  T/C: 95 % of control and 100 % of control
[8]
  T/C: 89 % of control

## NC(=O)c1nc2c([nH]c1=O)CCCC2
[1]
  T/C: 94 % of control
[6]
  T/C: 93 % of control
[2]
  T/C: 94 % of control
[7]
  T/C: 94 % of control
[3]
  T/C: 94 % of control
[8]
  T/C: 94 % of control

## c1ccc(CN2C3CCCC2CC(c2ccccc2)C3)cc1 (configuration not stated)
dose: 100.0 mg/kg/injection, schedule: Q04DX002 (ip), vehicle: Klucel (hydroxypropylcellulose) (HPC)
  T/C: 92 % of control
dose: 200.0 mg/kg/injection, schedule: Q04DX002 (ip), vehicle: Klucel (hydroxypropylcellulose) (HPC)
  T/C: 87 % of control

## Cc1ccc(Nc2cc(Br)c(N)c3c2C(=O)c2ccccc2C3=O)cc1
[9]
  T/C: 103 % of control
[1]
  T/C: 93 % of control and 94 % of control
[10]
  T/C: 92 % of control
[6]
  T/C: 97 % of control
[11]
  T/C: 102 % of control
[2]
  T/C: 93 % of control and 94 % of control
[12]
  T/C: 86 % of control
[7]
  T/C: 95 % of control
[13]
  T/C: 91 % of control
[3]
  T/C: 96 % of control and 97 % of control
[14]
  T/C: 86 % of control
[8]
  T/C: 90 % of control

## COC(OC)c1cc(S)[nH]c(=O)c1F
[4]
  T/C: 98 % of control
[5]
  T/C: 97 % of control
dose: 400.0 mg/kg/injection, schedule: Q04DX003 (ip), vehicle: Klucel (hydroxypropylcellulose) (HPC)
  T/C: 103 % of control
